Experimental data taken from US20240049719A1, “ANTIMICROBIAL COATING” (HECOSOL GMBH, priority 2017, published 2024).

Legend:
[1] = tested on: E. coli; experiment: JIS test (JIS Z 2801 / ISO 22196) on coated Petri dishes, germ reduction of E. coli; format: cell-based
From the text: The reduction factor RL is used to quantify the anti-microbial effectiveness. This reduction factor RL can be represented by the following mathematical relationship: RL=log (A/B). Here, A corresponds to an average value of so-called colony forming units (CFU) per ml on a reference surface without anti-microbial coating. Consequently, B corresponds to an average value of colony forming units (CFU) per ml on a reference surface with an anti-microbial coating according to the present invention. The internationally recognized JIS test (Japanese Industrial Standard Test, JIS Z 2801), which corresponds to ISO standard 22196 in Europe, is used for objective assessment of the germ reducing effect of surfaces. Thereby, Petri dishes coated with the test substance are first wetted with a germ suspension (e.g. […] Here, the experiments can be performed in the dark or under defined lighting conditions (e.g. by means of LED light at 1600 lux). At the end of the incubation, the number of surviving germs is determined and a reduction factor RL is calculated as described above.

[2] = tested on: Staphylococcus aureus; experiment: JIS test (JIS Z 2801 / ISO 22196) against Staphylococcus aureus; format: cell-based; conditions: in-vitro JIS test, 1600 lux
Experimental: The internationally recognized JIS test (Japanese Industrial Standard Test, JIS Z 2801), which corresponds to ISO standard 22196 in Europe, is used for objective assessment of the germ reducing effect of surfaces.
Thereby, Petri dishes coated with the test substance are first wetted with a germ suspension (e.g. E. coli or Staphylococcus aureus), covered with a foil and then incubated at 35° C. and 95% humidity.
Here, the experiments can be performed in the dark or under defined lighting conditions (e.g. by means of LED light at 1600 lux).
At the end of the incubation, the number of surviving germs is determined and a reduction factor RL is calculated as described above.
The anti-microbial effectiveness of this coating 10′ against the Staphylococcus aureus germ is shown in FIG. 14a after an incubation period of 24 hours under defined light conditions of about 1600 lux with RL=4.1.

[3] = format: physicochemical
From the text: Furthermore, it is shown that the structure of the deposited TiO2*AgNO3 matrix is stable against 1000-times wiping with an anti-septic cloth (ethanol, benzalkonium chloride).

[4] = tested on: daphnia (water flea); conditions: in vivo
From the text: (§1) Therefore, the toxicological behaviour of this coating towards daphnia (water flea) as well as Artemia nauplii (brine shrimp) was investigated. […] As a result, these animals show the same vitality in the coated plates as in the uncoated ones.

[5] = tested on: Artemia nauplii (brine shrimp); conditions: in vivo
From the text: as §1

## [Ag+].[Ag+].[O]=[Mo](=[O])([O-])[O-] [Ag2MoO4, silver molybdate]
[1]; within/after 24 h, 1600 lux
  anti-microbial effectiveness (class in words): strongly germ-reducing

## O=[N+]([O-])[O-].[Ag+] [AgNO3, silver nitrate]
[1]; 5 min incubation, in the dark
  reduction factor RL: 4.3
[1]; JIS test
  reproducible RL values (range over repeated JIS tests): 4.0-4.3

## [Na+].[Na+].[O]=[Mo](=[O])([O-])[O-] [Na2MoO4, sodium molybdate]
[1]; within/after 24 h, 1600 lux
  anti-microbial effectiveness (class in words): no anti-microbial effect

## [O]=[Mo](=[O])([O-])[O-].[Zn+2] [ZnMoO4, zinc molybdate]
[1]; 5 min incubation, in the dark
  reduction factor RL: 3.2
[2]
  effectiveness (in words): germ reducing effectiveness

## [O]=[W](=[O])([O-])[O-].[Zn+2] [ZnWO4, zinc tungstate]
[1]; within/after 24 h, 1600 lux
  anti-microbial effectiveness (class in words): strong

## [O]=[W](=[O])=[O] [tungsten oxide]
[1]; within/after 24 h, 1600 lux
  anti-microbial effectiveness (class in words): strong

## TiO2*AgNO3
[3]
  stability of deposited matrix structure against wiping: stable
[4]
  vitality of animals in coated vs uncoated plates: same vitality
[5]
  vitality of animals in coated vs uncoated plates: same vitality

## ammonium heptamolybdate [(NH4)6Mo7O24]
[1]; 1 h incubation, 1600 lux
  reduction factor RL (anti-microbial effectiveness): 1.4
[1]; 24 h incubation, 1600 lux
  reduction factor RL: 4.3
[1]; after 1 h, 1600 lux
  anti-microbial effectiveness (class in words): significant

## tungsten molybdate
[1]; after 1 h, 1600 lux
  anti-microbial effectiveness (class in words): no antimicrobial effectiveness
[1]; within/after 24 h, 1600 lux
  anti-microbial effectiveness (class in words): no antimicrobial effectiveness
